Measured values from PubChem BioAssay AID288 (DTP/NCI, 2004).
Several values for one entry are separate records, joined by “and”; a condition that tells them apart may be missing. Equal entries are not always repeated. Inconclusive results are not listed.

System: BDF1 mice, M5076 sarcoma s.c., survival/tumor T/C
Experiment: NCI In Vivo Anticancer Drug Screen. Data for tumor model Sarcoma M5076 (subcutaneous) in B6D2F1 (BDF1) mice
Method: The antitumor activity of compounds was measured in mice bearing transplantable tumors. Survival or tumor size were measured and the results are expressed as the measurement made in the treated group (T) divided by the measurement made in the vehicle treated control group (C). The tumor model used in this assay is Sarcoma M5076 (subcutaneous) in B6D2F1 (BDF1) mice

[1] = endpoint: median survival time, dose: 50.0 mg/kg/injection, schedule: Q01DX009 (ip), vehicle: saline with Tween-80, higher = longer survival
[2] = endpoint: median survival time, dose: 100.0 mg/kg/injection, schedule: Q01DX009 (ip), vehicle: saline with Tween-80, higher = longer survival
[3] = endpoint: median survival time, dose: 200.0 mg/kg/injection, schedule: Q01DX009 (ip), vehicle: saline with Tween-80, higher = longer survival
[4] = endpoint: median tumor weight (est.), dose: 50.0 mg/kg/injection, schedule: Q01DX009 (ip), vehicle: saline with Tween-80, higher = larger tumour
[5] = endpoint: median tumor weight (est.), dose: 100.0 mg/kg/injection, schedule: Q01DX009 (ip), vehicle: saline with Tween-80, higher = larger tumour
[6] = endpoint: median tumor weight (est.), dose: 200.0 mg/kg/injection, schedule: Q01DX009 (ip), vehicle: saline with Tween-80, higher = larger tumour

SMILES: Nc1n[n+](-c2ccc(Cl)cc2)no1
- T/C (endpoint: median survival time, dose: 25.0 mg/kg/injection, schedule: Q04DX003 (ip), vehicle: water, higher = longer survival): 99 % of control
- T/C (endpoint: median survival time, dose: 50.0 mg/kg/injection, schedule: Q04DX003 (ip), vehicle: water, higher = longer survival): 100 % of control

SMILES: O=C1c2ccccc2C(=O)c2c(NCCNCCO)ccc(NCCNCCO)c21
- T/C (endpoint: median survival time, dose: 7.78 mg/kg/injection, schedule: Q04DX004 (ip), vehicle: saline, higher = longer survival): 100 % of control
- T/C (endpoint: median survival time, dose: 7.78 mg/kg/injection, schedule: Q04DX004 (iv), vehicle: saline, higher = longer survival): 102 % of control
- T/C (endpoint: median survival time, dose: 13.0 mg/kg/injection, schedule: Q04DX004 (ip), vehicle: saline, higher = longer survival): 96 % of control
- T/C (endpoint: median survival time, dose: 13.0 mg/kg/injection, schedule: Q04DX004 (iv), vehicle: saline, higher = longer survival): 88 % of control
- T/C (endpoint: median survival time, dose: 21.6 mg/kg/injection, schedule: Q04DX004 (ip), vehicle: saline, higher = longer survival): 90 % of control
- T/C (endpoint: median survival time, dose: 21.6 mg/kg/injection, schedule: Q04DX004 (iv), vehicle: saline, higher = longer survival): 100 % of control
- T/C (endpoint: median survival time, dose: 36.0 mg/kg/injection, schedule: Q04DX004 (ip), vehicle: saline, higher = longer survival): 103 % of control

SMILES: Cc1ccc(/C=C2\SC(=S)N(C3CC3)C2=O)cc1
- T/C [1]: 103 % of control
- T/C [2]: 94 % of control
- T/C [3]: 98 % of control
- T/C [4]: 105 % of control
- T/C [5]: 80 % of control
- T/C [6]: 93 % of control

SMILES: Nc1ccc(N2N=C(N3CCCC3)CC2=O)cc1
- T/C [1]: 100 % of control
- T/C [2]: 99 % of control
- T/C [3]: 94 % of control
- T/C [4]: 112 % of control
- T/C [6]: 80 % of control

SMILES: CO[C@@]12[C@H](COC(N)=O)C3=C(C(=O)C(C)=C(N)C3=O)N1C[C@@H]1N[C@@H]12
- T/C (endpoint: median survival time, dose: 0.38 mg/kg/injection, schedule: Q04DX006 (ip), vehicle: saline, higher = longer survival): 105 % of control
- T/C (endpoint: median survival time, dose: 0.75 mg/kg/injection, schedule: Q02DX033 (ip), vehicle: saline, higher = longer survival): 154 % of control
- T/C (endpoint: median survival time, dose: 0.75 mg/kg/injection, schedule: Q04DX006 (ip), vehicle: saline, higher = longer survival): 103 % of control
- T/C (endpoint: median survival time, dose: 1.5 mg/kg/injection, schedule: Q02DX033 (ip), vehicle: saline, higher = longer survival): 92 % of control
- T/C (endpoint: median survival time, dose: 3.0 mg/kg/injection, schedule: Q04DX006 (ip), vehicle: saline, higher = longer survival): 101 % of control

SMILES: COc1ccc(/C=N/OC(=S)NC2CCCCC2)cc1OC
- T/C [1]: 102 % of control
- T/C [2]: 86 % of control
- T/C [3]: 92 % of control

SMILES: COc1ccc(/C=C2\SC(=O)N(C)C2=O)cc1OC
- T/C [1]: 93 % of control
- T/C [2]: 100 % of control
- T/C [3]: 93 % of control
- T/C [4]: 104 % of control
- T/C [5]: 110 % of control
- T/C [6]: 77 % of control

SMILES: COC1CC2C=C(C)/C=C/C=C/C(=O)NC(c3ccccc3)C/C=C/CCC(O)CC(=O)C2=C1O (centres undefined)
- T/C (endpoint: median survival time, dose: 1.0 mg/kg/injection, schedule: Q01DX009 (ip), vehicle: Klucel (hydroxypropylcellulose) (HPC), higher = longer survival): 100 % of control
- T/C (endpoint: median survival time, dose: 2.0 mg/kg/injection, schedule: Q01DX009 (ip), vehicle: Klucel (hydroxypropylcellulose) (HPC), higher = longer survival): 100 % of control
- T/C (endpoint: median survival time, dose: 4.0 mg/kg/injection, schedule: Q01DX009 (ip), vehicle: Klucel (hydroxypropylcellulose) (HPC), higher = longer survival): 100 % of control
- T/C (endpoint: median tumor weight (est.), dose: 1.0 mg/kg/injection, schedule: Q01DX009 (ip), vehicle: Klucel (hydroxypropylcellulose) (HPC), higher = larger tumour): 77 % of control
- T/C (endpoint: median tumor weight (est.), dose: 2.0 mg/kg/injection, schedule: Q01DX009 (ip), vehicle: Klucel (hydroxypropylcellulose) (HPC), higher = larger tumour): 109 % of control
- T/C (endpoint: median tumor weight (est.), dose: 4.0 mg/kg/injection, schedule: Q01DX009 (ip), vehicle: Klucel (hydroxypropylcellulose) (HPC), higher = larger tumour): 82 % of control

SMILES: COCC(O)Cn1ccnc1[N+](=O)[O-] (centres undefined)
- T/C (endpoint: median survival time, dose: 600.0 mg/kg/injection, schedule: Q04DX003 (ip), vehicle: saline, higher = longer survival): 105 % of control and 106 % of control
- T/C (endpoint: median survival time, dose: 668.0 mg/kg/injection, schedule: Q07DX002 (ip), vehicle: saline, higher = longer survival): 97 % of control
- T/C (endpoint: median survival time, dose: 1000.0 mg/kg/injection, schedule: Q04DX003 (ip), vehicle: saline, higher = longer survival): 102 % of control
- T/C (endpoint: median survival time, dose: 1000.0 mg/kg/injection, schedule: Q07DX002 (ip), vehicle: saline, higher = longer survival): 119 % of control
